{
  "source": "paper PMC4786259",
  "about": "(PLoS ONE, 2016)",
  "key": {"AmpC β-lactamase": {"molecular_target": "AmpC β-lactamase (Escherichia coli, UniProt P00811)", "sequence (P00811 20-377)": "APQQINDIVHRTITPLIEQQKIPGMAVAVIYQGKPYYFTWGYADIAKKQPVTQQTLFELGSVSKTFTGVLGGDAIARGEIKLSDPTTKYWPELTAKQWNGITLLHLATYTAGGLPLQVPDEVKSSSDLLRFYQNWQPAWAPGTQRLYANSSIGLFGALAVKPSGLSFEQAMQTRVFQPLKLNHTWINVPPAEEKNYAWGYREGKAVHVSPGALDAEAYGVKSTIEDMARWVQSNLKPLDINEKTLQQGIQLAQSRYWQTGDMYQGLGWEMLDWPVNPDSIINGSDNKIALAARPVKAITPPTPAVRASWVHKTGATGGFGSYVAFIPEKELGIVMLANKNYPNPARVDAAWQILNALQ", "test": "AmpC β-lactamase assay counterscreen for colloidal aggregation", "details": "<= 10 μM; data not shown"}, "mice": {"tested_on": "mice", "test": "Prepulse inhibition, pharmacological model using amphetamine", "type": "in vivo", "details": "data not shown"}, "male C57BL/6J mice [1]": {"tested_on": "male C57BL/6J mice", "test": "PCP-induced hyperlocomotor activity (open field)", "type": "in vivo", "method": "Locomotor activity was assessed in AccuScan activity monitors (41X41X30 cm; AccuScan Instruments, Columbus, OH) with photocells spaced at 1.52 cm as described. In these monitors, the photocells create a grid of light beams, and breaks in the light beams (caused by the mouse) are recorded. The Accuscan software then calculates the total distance travelled (amongst other measurements) by analyzing the sequential order of beam breaks in the grid. Horizontal activity was measured as the total distance traveled in centimeters and was recorded in 5-minute bins. PCP-induced hyperlocomotor activity: mice (n = 16) previously acclimated to activity chambers were placed into the chambers for 15 minutes. […] Subsequently, mice were injected with 6.0 mg/kg PCP (i.p.) and returned to the chamber for 90 minutes. Induction of AMPH-induced hyperlocomotor activity followed an identical protocol except locomotor activity was recorded for a total of 75 minutes and 3 mg/kg AMPH was used (i.p.)."}, "hDAT and hVMAT2": {"tested_on": "hDAT and hVMAT2", "test": "Whole cell 3H-dopamine uptake in HEK-DAT/VMAT2 cells", "details": "nuciferine pre-treatment"}, "H2": {"molecular_target": "H2 (Homo sapiens, UniProt P25021)", "sequence (P25021 whole entry)": "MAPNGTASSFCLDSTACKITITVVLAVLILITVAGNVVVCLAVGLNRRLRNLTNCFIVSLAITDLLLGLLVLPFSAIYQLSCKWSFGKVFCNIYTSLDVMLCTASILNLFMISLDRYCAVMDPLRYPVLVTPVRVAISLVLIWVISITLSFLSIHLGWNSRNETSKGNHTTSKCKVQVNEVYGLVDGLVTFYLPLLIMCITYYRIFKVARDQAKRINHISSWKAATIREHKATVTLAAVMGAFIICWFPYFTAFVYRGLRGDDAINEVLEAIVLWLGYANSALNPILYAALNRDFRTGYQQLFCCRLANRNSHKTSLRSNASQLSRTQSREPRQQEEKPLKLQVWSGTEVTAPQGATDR", "test": "PDSP radioligand competition binding", "details": "radioligand [^3H]Cimetidine; read-out: In vitro Affinity"}, "male C57BL/6J mice [2]": {"tested_on": "male C57BL/6J mice", "test": "DOI-induced head-twitch response", "type": "in vivo"}, "α1D": {"molecular_target": "α1D (Homo sapiens, UniProt P25100)", "sequence (P25100 whole entry)": "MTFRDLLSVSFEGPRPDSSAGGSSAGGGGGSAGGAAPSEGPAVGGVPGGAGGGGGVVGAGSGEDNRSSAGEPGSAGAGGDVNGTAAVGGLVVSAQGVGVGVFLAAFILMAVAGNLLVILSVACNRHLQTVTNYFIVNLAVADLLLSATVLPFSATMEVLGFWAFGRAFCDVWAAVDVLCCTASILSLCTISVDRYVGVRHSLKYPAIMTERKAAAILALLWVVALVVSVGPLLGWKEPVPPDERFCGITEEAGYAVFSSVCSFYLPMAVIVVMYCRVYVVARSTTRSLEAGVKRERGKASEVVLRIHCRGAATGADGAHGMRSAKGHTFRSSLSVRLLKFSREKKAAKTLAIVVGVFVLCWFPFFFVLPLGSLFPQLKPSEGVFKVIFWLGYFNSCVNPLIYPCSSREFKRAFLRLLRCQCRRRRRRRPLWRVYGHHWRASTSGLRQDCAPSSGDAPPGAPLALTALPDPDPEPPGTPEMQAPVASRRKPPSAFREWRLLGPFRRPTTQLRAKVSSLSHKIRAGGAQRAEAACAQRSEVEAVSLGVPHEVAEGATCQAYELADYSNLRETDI", "test": "PDSP radioligand competition binding", "details": "radioligand [^3H]Prazosin; read-out: In vitro Affinity"}, "5-HT2B": {"molecular_target": "T1, 5-HT2B (Homo sapiens, UniProt P41595)", "T1 construct": "expressed in transfected cells", "T1 sequence (P41595 whole entry, species assumed)": "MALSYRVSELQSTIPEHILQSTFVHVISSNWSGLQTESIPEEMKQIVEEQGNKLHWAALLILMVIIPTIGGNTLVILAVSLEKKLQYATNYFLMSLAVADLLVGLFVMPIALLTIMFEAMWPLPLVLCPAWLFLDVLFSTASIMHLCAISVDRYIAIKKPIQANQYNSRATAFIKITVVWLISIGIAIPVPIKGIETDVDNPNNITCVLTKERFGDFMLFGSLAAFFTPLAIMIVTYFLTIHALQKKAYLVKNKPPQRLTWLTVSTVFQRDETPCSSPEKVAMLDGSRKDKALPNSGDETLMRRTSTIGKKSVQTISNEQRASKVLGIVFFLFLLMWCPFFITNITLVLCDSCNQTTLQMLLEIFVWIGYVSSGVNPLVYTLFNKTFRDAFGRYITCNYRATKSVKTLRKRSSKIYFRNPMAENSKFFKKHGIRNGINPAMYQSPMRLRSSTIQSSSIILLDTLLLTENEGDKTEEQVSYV", "test": "PDSP radioligand competition binding", "details": "radioligand [^3H]LSD; read-out: In Vitro Affinity"}, "5-HT2C": {"molecular_target": "T2, 5-HT2C (Homo sapiens, UniProt P28335)", "T2 construct": "expressed in transfected cells", "T2 sequence (P28335 33-458)": "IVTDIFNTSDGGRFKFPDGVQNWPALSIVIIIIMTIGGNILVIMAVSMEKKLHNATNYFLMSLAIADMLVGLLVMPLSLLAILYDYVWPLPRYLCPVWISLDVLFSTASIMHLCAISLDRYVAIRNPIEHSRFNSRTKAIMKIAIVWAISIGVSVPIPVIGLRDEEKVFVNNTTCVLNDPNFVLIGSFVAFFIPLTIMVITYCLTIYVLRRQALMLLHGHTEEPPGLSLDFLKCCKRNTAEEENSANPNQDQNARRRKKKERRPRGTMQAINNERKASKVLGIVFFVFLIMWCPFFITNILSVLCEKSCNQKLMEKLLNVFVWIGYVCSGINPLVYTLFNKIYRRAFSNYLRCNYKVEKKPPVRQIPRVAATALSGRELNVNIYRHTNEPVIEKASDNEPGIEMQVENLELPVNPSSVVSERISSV", "test": "PDSP receptor functional assay", "type": "cell-based"}, "DOR": {"molecular_target": "DOR (Homo sapiens, UniProt P41143)", "sequence (P41143 whole entry)": "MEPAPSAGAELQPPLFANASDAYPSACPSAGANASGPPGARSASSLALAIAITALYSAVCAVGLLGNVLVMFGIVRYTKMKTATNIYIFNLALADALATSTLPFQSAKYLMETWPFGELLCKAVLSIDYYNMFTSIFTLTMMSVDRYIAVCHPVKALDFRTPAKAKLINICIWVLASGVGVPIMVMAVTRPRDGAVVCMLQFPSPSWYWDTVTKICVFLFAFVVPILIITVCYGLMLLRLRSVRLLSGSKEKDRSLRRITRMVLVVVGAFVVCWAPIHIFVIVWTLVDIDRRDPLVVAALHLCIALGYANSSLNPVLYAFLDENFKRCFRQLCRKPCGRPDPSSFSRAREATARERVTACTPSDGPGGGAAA", "test": "PDSP radioligand competition binding", "details": "radioligand [^3H]DADLE; read-out: In vitro Affinity"}, "β3-AR": {"molecular_target": "β3-AR (Homo sapiens, UniProt P13945)", "sequence (P13945 whole entry)": "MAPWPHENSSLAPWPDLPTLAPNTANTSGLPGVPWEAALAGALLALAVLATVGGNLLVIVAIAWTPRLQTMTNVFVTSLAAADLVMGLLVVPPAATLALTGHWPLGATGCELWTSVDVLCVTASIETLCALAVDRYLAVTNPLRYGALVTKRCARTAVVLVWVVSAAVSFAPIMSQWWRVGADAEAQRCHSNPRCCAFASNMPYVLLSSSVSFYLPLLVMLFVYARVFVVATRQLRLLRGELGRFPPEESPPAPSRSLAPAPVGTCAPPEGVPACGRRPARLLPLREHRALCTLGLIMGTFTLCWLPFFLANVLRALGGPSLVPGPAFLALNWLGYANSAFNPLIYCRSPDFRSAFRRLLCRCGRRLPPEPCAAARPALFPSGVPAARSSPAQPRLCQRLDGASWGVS", "test": "PDSP radioligand competition binding", "details": "radioligand [^3H]CGP12177; read-out: In vitro Affinity"}, "5-HT1A": {"molecular_target": "T3, 5-HT1A (Homo sapiens, UniProt P08908)", "T3 construct": "expressed in transfected cells", "T3 sequence (P08908 1-422)": "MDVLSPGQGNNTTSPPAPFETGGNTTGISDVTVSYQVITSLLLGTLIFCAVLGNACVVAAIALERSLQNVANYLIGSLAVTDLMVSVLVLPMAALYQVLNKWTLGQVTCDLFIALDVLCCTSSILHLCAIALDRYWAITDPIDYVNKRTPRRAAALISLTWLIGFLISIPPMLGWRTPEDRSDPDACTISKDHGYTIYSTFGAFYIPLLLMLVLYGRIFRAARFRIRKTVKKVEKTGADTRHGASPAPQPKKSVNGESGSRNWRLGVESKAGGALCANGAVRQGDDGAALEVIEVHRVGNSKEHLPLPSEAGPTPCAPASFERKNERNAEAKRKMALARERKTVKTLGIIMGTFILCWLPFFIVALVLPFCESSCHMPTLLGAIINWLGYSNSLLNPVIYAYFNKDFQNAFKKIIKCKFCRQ", "test": "PDSP receptor functional assay", "type": "cell-based"}, "male NIH Swiss mice": {"tested_on": "male NIH Swiss mice", "test": "DOI drug discrimination", "type": "in vivo"}, "α2B": {"molecular_target": "α2B (Homo sapiens, UniProt P18089)", "sequence (P18089 whole entry)": "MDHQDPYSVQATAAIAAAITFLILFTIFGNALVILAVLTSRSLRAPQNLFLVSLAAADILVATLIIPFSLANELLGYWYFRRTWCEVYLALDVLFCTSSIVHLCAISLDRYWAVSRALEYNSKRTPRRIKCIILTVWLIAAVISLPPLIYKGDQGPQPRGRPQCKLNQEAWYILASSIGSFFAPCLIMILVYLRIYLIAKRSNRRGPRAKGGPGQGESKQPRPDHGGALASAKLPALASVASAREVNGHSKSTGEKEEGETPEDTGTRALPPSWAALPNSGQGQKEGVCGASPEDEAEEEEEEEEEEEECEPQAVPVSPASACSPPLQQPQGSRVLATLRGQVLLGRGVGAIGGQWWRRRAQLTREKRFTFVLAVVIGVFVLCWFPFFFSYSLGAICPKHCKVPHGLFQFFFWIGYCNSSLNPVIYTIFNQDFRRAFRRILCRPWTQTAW", "test": "PDSP radioligand competition binding", "details": "radioligand [^3H]Rauwolscine; read-out: In vitro Affinity"}, "rats": {"tested_on": "rats", "design": "method as in PMID 100809", "details": "dose range 25–100 mg/kg; cited from earlier work"}, "male C57BL/6J mice [3]": {"tested_on": "male C57BL/6J mice", "test": "Catalepsy, inclined screen test", "details": "for latency to movement: nuciferine 10.0 mg/kg i.p."}},
  "note": "“Also recorded” adds a separate entry of the source. Like-named read-outs stand apart in the source and are kept apart here.",
  "data": [
    {"smiles": "COc1cc2c3c(c1OC)-c1ccccc1C[C@H]3N(C)CC2", "note": "[nuciferine]", "values": [
      {"measurement": "inhibition of AmpC β-lactamase", "setting": "AmpC β-lactamase", "result": "did not inhibit"},
      {"measurement": "PPI in the pharmacological model using amphetamine", "setting": "mice", "result": "failed to normalize PPI"},
      {"measurement": "PCP-stimulated locomotor activity", "setting": "male C57BL/6J mice [1]; 3 mg/kg i.p. before 6.0 mg/kg PCP", "result": "failed to significantly alter the PCP-induced hyperlocomotion"},
      {"measurement": "PCP-stimulated locomotor activity", "setting": "male C57BL/6J mice [1]; 10.0 mg/kg i.p. before 6.0 mg/kg PCP", "result": "significantly blocked"},
      {"measurement": "effect on dopamine uptake in HEK-DAT/VMAT2 cells", "setting": "hDAT and hVMAT2", "result": "no effect"},
      {"measurement": "Ki", "setting": "H2", "result": 1660, "unit": "nM"},
      {"measurement": "DOI-induced head-twitches", "setting": "male C57BL/6J mice [2]; 1 mg/kg i.p., 15 min prior to 1.0 mg/kg DOI", "result": "no statistical effect"},
      {"measurement": "DOI-induced head-twitches", "setting": "male C57BL/6J mice [2]; 3 mg/kg i.p., 15 min prior to 1.0 mg/kg DOI, at 5, 10, 15 and 20 min", "result": "decreased head-twitches; also recorded: statistically significant (p<0.05) reductions in the numbers of head-twitches"},
      {"measurement": "DOI-induced head-twitches", "setting": "male C57BL/6J mice [2]; 3 mg/kg i.p., 30 min prior to DOI", "result": "statistically significant (p<0.05) reductions in the numbers of head-twitches"},
      {"measurement": "DOI-induced head-twitches", "setting": "male C57BL/6J mice [2]; 3 mg/kg i.p., 45 min prior to DOI", "result": "failed to show significant alterations in head-twitches"},
      {"measurement": "DOI-induced head-twitches", "setting": "male C57BL/6J mice [2]; 3 mg/kg i.p., 60 min prior to DOI", "result": "failed to show significant alterations in head-twitches"},
      {"measurement": "DOI-induced head-twitches", "setting": "male C57BL/6J mice [2]; 3 mg/kg s.c., 15 min prior to 1.0 mg/kg DOI, at 10, 15 and 20 min", "result": "attenuated DOI-induced head-twitches"},
      {"measurement": "DOI-induced head-twitches", "setting": "male C57BL/6J mice [2]; 10 mg/kg i.p., 15 min prior to 1.0 mg/kg DOI, at 5, 10, 15 and 20 min", "result": "decreased head-twitches"},
      {"measurement": "Ki", "setting": "α1D", "result": 818, "unit": "nM"},
      {"measurement": "Ki", "setting": "5-HT2B", "result": 41, "unit": "nM"},
      {"measurement": "Function Type", "setting": "5-HT2C", "result": "Antagonist"},
      {"measurement": "IC50", "setting": "5-HT2C; 5-HT2C antagonist", "result": 131, "unit": "nM"},
      {"measurement": "EC50", "setting": "5-HT2C; antagonist", "result": 131, "unit": "nM"},
      {"measurement": "Ki", "setting": "DOR", "result": 10000, "unit": "nM"},
      {"measurement": "Ki", "setting": "β3-AR", "result": 1100, "unit": "nM"},
      {"measurement": "Function Type", "setting": "5-HT1A", "result": "Agonist"},
      {"measurement": "EC50", "setting": "5-HT1A; 5-HT1A agonist, read-out: EC50", "result": 3200, "unit": "nM"},
      {"measurement": "EC50", "setting": "5-HT1A; agonist, read-out: Functional EC50", "result": 3230, "unit": "nM"},
      {"measurement": "substitution of cumulative DOI doses for the DOI training dose", "setting": "male NIH Swiss mice; in the presence of 1.0 mg/kg nuciferine", "result": "partial substitution"},
      {"measurement": "substitution of cumulative DOI doses for the DOI training dose", "setting": "male NIH Swiss mice; in the presence of 3.0 mg/kg nuciferine", "result": "no cumulative dose of DOI substituted for the training dose"},
      {"measurement": "Ki", "setting": "α2B", "result": 687, "unit": "nM"},
      {"measurement": "hyperlocomotor effect of amphetamine", "setting": "rats", "result": "inhibits the hyperlocomotor effect of amphetamine"},
      {"measurement": "catalepsy", "setting": "male C57BL/6J mice [3]; 10.0 mg/kg, any of the time-points examined", "result": "did not produce catalepsy"},
      {"measurement": "latency to movement", "setting": "male C57BL/6J mice [3]; 30 min post-injection", "result": "2.3 ± 2.3", "unit": "s"},
      {"measurement": "latency to movement", "setting": "male C57BL/6J mice [3]; 60 min post-injection", "result": "4.7 ± 2.6", "unit": "s"}
    ]}
  ]
}
